For the test, the target named is T1, human serotonin transporter (hSERT) (Homo sapiens, UniProt P31645).
T1 construct: expressed in transfected cells; host or cells: HEK-293 (stably transfected)
Briefly: inhibition of 3H-serotonin uptake in HEK-293 cells expressing hSERT. In kind it is cell-based. The settings on record: HEK-293 cells with hSERT, 3H-5HT 50 nM, 5 min incubation; read-out: serotonin re-uptake inhibition (SRI) IC50. The protocol:
A number of compounds were tested for biological activity by their ability to inhibit the uptake of serotonin by human serotonin transporters as follows.
Human embryonic kidney cells (HEK-293) stably transfected with either the human serotonin transporter (hSERT), noradrenaline transporter (hNET) or dopamine transporter (hDAT) were cultured under standard cell culture techniques (cells were grown at 37° C. and 5% CO2 in DMEM-culture media (supplemented with 10% dialysed foetal calf serum (FCS), 2 mM I-glutamine and 250 μg/ml geneticin)). Cells were harvested for the assay to yield a cell suspension of 750,000 cells/ml.
All test compounds were dissolved in 100% DMSO and diluted down in assay buffer to give appropriate test concentrations. Assays were carried out in 96-well filter bottom plates. Cells (7500 cells/assay well) were pre-incubated in standard assay buffer containing either test compound, standard inhibitor or compound vehicle (1% DMSO) for 5 minutes. Reactions were started by addition of either ^3H-Serotonin, ^3H-Noradrenaline or ^3H-Dopamine substrates. All reactions were carried out at room temperature in a shaking incubator. Incubation times were 5 minutes for the hSERT and hDAT assays and 15 minutes for the hNET assay. Reactions were terminated by removal of the reaction mixture using a vacuum manifold followed by rapid washing with ice cold assay buffer. The quantity of ^3H-substrate incorporated into the cells was then quantified.
Assay plates were dried in a microwave oven, scintillation fluid added, and radioactivity measured. Potency of test compounds was quantified as IC50 values (concentration of test compound required to inhibit the specific uptake of radiolabelled substrate into the cells by 50%).

Where “and” joins values, the source holds several entries; their conditions need not be identical. Equal entries are not always repeated. Structures can show the parent of a compound that is named as a salt.

As usually defined, the IC50 is the concentration needed to halve the response being measured.

T1 sequence (P31645 whole entry): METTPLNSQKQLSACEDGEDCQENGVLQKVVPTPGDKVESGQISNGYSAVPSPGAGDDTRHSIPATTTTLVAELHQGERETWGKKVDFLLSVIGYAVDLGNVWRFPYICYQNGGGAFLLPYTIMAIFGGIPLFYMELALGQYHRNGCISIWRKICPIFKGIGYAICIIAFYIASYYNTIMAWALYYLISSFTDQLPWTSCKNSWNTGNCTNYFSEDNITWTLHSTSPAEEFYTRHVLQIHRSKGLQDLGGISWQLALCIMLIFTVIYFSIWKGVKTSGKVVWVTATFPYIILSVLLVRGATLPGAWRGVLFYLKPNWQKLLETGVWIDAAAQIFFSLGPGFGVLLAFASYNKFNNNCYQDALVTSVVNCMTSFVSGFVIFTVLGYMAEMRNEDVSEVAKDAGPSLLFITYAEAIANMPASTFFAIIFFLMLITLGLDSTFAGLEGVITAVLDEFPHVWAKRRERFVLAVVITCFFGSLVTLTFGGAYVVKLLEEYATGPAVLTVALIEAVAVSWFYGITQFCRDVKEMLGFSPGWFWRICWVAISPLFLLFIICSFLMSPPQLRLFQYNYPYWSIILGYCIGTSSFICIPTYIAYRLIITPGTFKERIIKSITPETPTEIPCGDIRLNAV

Turning to `CNS(=O)(=O)c1ccc(Oc2ccc(SC)cc2)c(C2CCCN2)c1` (single isomer, unassigned) [Example 11, N-methyl-4-[4-(methylsulfanyl)phenoxy]-3-(2-pyrrolidinyl)benzenesulfonamide], the IC50 was ≤ 100 nM and ≤ 50 nM and 5.9 nM. The value for `CS(=O)(=O)Nc1ccc(Oc2ccc(OC(F)(F)F)cc2)c(C2CCCN2)c1` (single isomer, unassigned) [Example 21] was 13 nM; that for `CSc1ccc(Oc2ccc(S(N)(=O)=O)cc2C2CCCN2)cc1` (single isomer, unassigned; (+)) [Example 7, (+)4-[4-(Methylsulfanyl)phenoxy]-3-(2-pyrrolidinyl)benzenesulfonamide hydrochloride] was ≤ 100 nM and ≤ 50 nM and 5.4 nM. In the case of `CS(=O)(=O)Nc1ccc(Oc2ccc(OC(F)(F)F)cc2)c(C2CCCN2)c1` (single isomer, unassigned; (+)) [Example 22, (+) N-{3-(2-pyrrolidinyl)-4-[4-(trifluoromethoxy)phenoxy]phenyl}-methanesulfonamide] it was no more than 50 nM.

Source of the values: US6630504B2, “Phenoxyphenylheterocyclyl derivatives as SSRIs” (Pfizer Inc., priority 2000, dated 2003).
